Molecules are shown by their SMILES. Where a SMILES comes first, the peptide text is derived from it.

In PMC8194939, “Investigation on the characteristics and mechanisms of ACE inhibitory peptides by a thorough analysis of all 8000 tripeptides via binding free energy calculation” (Food Science & Nutrition, 2021) one finds IC50 data, which are given here for seven compounds.

For this test, the target named is T1, ACE from rabbit lung (Oryctolagus cuniculus, UniProt P12822).
T1 sequence (P12822 34-1310): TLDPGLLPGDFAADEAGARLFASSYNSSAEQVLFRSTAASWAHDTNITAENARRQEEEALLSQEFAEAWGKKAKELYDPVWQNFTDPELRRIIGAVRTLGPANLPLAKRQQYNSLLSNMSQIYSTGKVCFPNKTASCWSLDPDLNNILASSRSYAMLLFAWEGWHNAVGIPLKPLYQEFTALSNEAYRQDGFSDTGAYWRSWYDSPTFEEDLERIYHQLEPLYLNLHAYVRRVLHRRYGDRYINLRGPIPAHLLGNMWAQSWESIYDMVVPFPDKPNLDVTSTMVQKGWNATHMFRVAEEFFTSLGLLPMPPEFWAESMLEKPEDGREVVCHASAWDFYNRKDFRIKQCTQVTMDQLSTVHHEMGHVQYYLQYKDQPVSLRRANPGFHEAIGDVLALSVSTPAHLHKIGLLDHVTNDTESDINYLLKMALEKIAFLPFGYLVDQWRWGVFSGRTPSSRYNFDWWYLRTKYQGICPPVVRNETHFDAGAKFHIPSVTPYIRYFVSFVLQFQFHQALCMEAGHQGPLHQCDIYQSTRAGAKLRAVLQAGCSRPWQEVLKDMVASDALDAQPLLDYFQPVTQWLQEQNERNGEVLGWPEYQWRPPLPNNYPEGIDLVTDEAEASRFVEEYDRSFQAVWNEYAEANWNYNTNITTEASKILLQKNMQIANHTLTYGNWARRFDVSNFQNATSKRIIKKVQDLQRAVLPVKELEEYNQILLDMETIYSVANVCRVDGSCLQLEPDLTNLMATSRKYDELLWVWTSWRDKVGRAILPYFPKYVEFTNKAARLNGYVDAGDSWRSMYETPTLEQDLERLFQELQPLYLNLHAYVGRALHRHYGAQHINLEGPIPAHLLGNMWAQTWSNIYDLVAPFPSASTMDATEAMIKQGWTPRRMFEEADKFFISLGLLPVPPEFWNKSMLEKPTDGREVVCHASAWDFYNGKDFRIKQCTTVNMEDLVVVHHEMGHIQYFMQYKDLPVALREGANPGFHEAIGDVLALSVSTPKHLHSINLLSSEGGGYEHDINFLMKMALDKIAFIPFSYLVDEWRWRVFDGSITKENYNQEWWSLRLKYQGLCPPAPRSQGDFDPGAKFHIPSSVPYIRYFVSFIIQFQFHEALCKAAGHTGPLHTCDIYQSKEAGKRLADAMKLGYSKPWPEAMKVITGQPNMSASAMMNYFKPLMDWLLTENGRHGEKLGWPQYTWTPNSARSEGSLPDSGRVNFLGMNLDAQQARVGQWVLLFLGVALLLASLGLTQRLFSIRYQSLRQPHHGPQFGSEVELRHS
The test can be described thus: Assay of ACE inhibitory activity (HHL substrate, RP-HPLC of hippuric acid).
Description: ACE from rabbit lung and hippuryl‐histidyl‐leucine (HHL) were sourced from Sigma Chemical Co. (St. Louis).
Briefly, 20 μL of inhibitory peptides at different concentrations and 20 μL of 5 mM HHL solution were preincubated at 37°C for 5 min in 90 μL of buffer A (50 mM HEPES, 300 mM NaCl, pH 8.3). Next, 20 μL of ACE solution (0.04 U/mL) was added to trigger the reaction. After incubation at 37°C for 1 hr, the reaction was terminated by adding 50 μL of 1 M HCl. Next, 10 μL of the mixture was separated through RP‐HPLC (e2679, Waters) using an XBridge C18 column (4.6 mm × 150 mm, 5 μm, Waters). […] Hippuric acid was monitored at 228 nm. Triplicate tests were performed for each sample. […] For comparative purposes, the IC50 value of captopril was obtained using this methodology.
Usually IC50 stands for the concentration needed to halve the response being measured. A lower IC50 goes with greater potency in that assay. `NCC(=O)NCC(=O)NCC(=O)O` [GGG] (H-Gly-Gly-Gly-OH) showed an IC50 greater than 5000 µM.

The compound `N[C@@H](CC(=O)O)C(=O)NCC(=O)NCC(=O)O` [DGG] (H-Asp-Gly-Gly-OH) displayed an IC50 greater than 5000 µM.

On to `N[C@@H](Cc1c[nH]c2ccccc12)C(=O)N[C@@H](Cc1c[nH]c2ccccc12)C(=O)N[C@@H](Cc1c[nH]c2ccccc12)C(=O)O` [WWW] (H-Trp-Trp-Trp-OH), for which the IC50 was 7.3 ± 2.11 µM.

Regarding `N=C(N)NCCC[C@H](NC(=O)[C@@H](N)Cc1c[nH]c2ccccc12)C(=O)N[C@@H](Cc1ccc(O)cc1)C(=O)O` [WRY] (H-Trp-Arg-Tyr-OH), the IC50 amounted to 5.86 ± 0.73 µM.

Consider `NC(=O)CC[C@H](NC(=O)[C@@H](N)Cc1c[nH]c2ccccc12)C(=O)N[C@@H](Cc1c[nH]c2ccccc12)C(=O)O` [WQW] (H-Trp-Gln-Trp-OH), for which half-maximal inhibition (IC50) was put at 11.8 ± 1.79 µM.

In turn, `N=C(N)NCCC[C@H](NC(=O)[C@@H](N)Cc1c[nH]c2ccccc12)C(=O)N[C@@H](Cc1ccccc1)C(=O)O` [WRF] (H-Trp-Arg-Phe-OH) registered an IC50 of 21.8 ± 2.5 µM.

As to `NCCCC[C@H](N)C(=O)N[C@@H](Cc1ccc(O)cc1)C(=O)N[C@@H](Cc1ccc(O)cc1)C(=O)O` [KYY] (H-Lys-Tyr-Tyr-OH), it took 20.5 ± 4.05 µM to reach half-maximal inhibition (IC50).
